Results published in ChEMBL document CHEMBL1150783, “In vitro activities of CG400549, a novel FabI inhibitor, against recently isolated clinical staphylococcal strains in Korea” (2007).
In brackets after ≈: the same amount, converted by molar mass. Activity calls are given as the source filed them. The calls are words filed in the database; no cut-off is given here.

How the values were obtained:
[1] = system: Staphylococcus aureus; assay: Antibacterial activity against methicillin-susceptible Staphylococcus aureus isolate by CLSI dilution method; type: functional
[2] = system: Staphylococcus sp.; assay: Antibacterial activity against methicillin-resistant coagulase-negative Staphylococcus sp. assessed as percent resistant isolates by CLSI dilution method; type: functional
[3] = system: Staphylococcus aureus; assay: Antibacterial activity against methicillin-resistant Staphylococcus aureus isolate assessed as percent susceptible isolates by CLSI dilution method; type: functional
[4] = system: Staphylococcus aureus; assay: (§1) Antibacterial activity against methicillin-resistant Staphylococcus aureus isolate assessed as percent resistant isolates by CLSI dilution method; type: functional
[5] = system: Staphylococcus sp.; assay: Antibacterial activity against methicillin-susceptible coagulase-negative Staphylococcus sp. assessed as percent resistant isolates by CLSI dilution method; type: functional
[6] = system: Staphylococcus aureus; assay: Antibacterial activity against methicillin-resistant Staphylococcus aureus by CLSI dilution method; type: functional
[7] = system: Staphylococcus sp.; assay: (§2) Antibacterial activity against methicillin-susceptible coagulase-negative Staphylococcus sp. assessed as percent susceptible isolates by CLSI dilution method; type: functional
[8] = system: Staphylococcus sp.; assay: Antibacterial activity against methicillin-susceptible coagulase-negative Staphylococcus sp. by CLSI dilution method; type: functional
[9] = system: Staphylococcus sp.; assay: as §2; type: functional; remark: listed apart in the source
[10] = system: Staphylococcus aureus; assay: Antibacterial activity against methicillin-susceptible Staphylococcus aureus isolate assessed as […] isolates by CLSI dilution method; type: functional
[11] = system: Staphylococcus aureus; assay: as §1; type: functional; remark: listed apart in the source
[12] = system: Staphylococcus sp.; assay: Antibacterial activity against methicillin-resistant coagulase-negative Staphylococcus sp. by CLSI dilution method; type: functional
[13] = system: Staphylococcus epidermidis; assay: Antibacterial activity against methicillin-resistant coagulase-negative Staphylococcus epidermidis by CLSI dilution method; type: functional
[14] = system: Enterobacter cloacae; assay: Antibacterial activity against sEnterobacter cloacae by CLSI dilution method; type: functional, organism-based
[15] = system: Escherichia coli; assay: Antibacterial activity against sEscherichia coli by CLSI dilution method; type: functional, organism-based
[16] = system: Staphylococcus haemolyticus; assay: Antibacterial activity against methicillin-susceptible coagulase-negative Staphylococcus haemolyticus by CLSI dilution method; type: functional
[17] = system: Morganella morganii; assay: Antibacterial activity against Morganella morganii by CLSI dilution method; type: functional, organism-based
[18] = system: Neisseria gonorrhoeae; assay: Antibacterial activity against Neisseria gonorrhoeae by CLSI dilution method; type: functional, organism-based
[19] = system: Moraxella catarrhalis; assay: Antibacterial activity against Moraxella catarrhalis by CLSI dilution method; type: functional, organism-based
[20] = system: Staphylococcus hominis; assay: Antibacterial activity against methicillin-susceptible coagulase-negative Staphylococcus hominis by CLSI dilution method; type: functional
[21] = system: Mammaliicoccus sciuri; assay: Antibacterial activity against methicillin-resistant coagulase-negative Staphylococcus sciuri by CLSI dilution method; type: functional
[22] = system: Staphylococcus haemolyticus; assay: Antibacterial activity against methicillin-resistant coagulase-negative Staphylococcus haemolyticus by CLSI dilution method; type: functional
[23] = system: Vibrio sp.; assay: Antibacterial activity against Vibrio sp. by CLSI dilution method; type: functional, organism-based
[24] = system: Haemophilus influenzae; assay: Antibacterial activity against sHaemophilus influenzae by CLSI dilution method; type: functional, organism-based
[25] = system: Staphylococcus saprophyticus; assay: Antibacterial activity against methicillin-resistant coagulase-negative Staphylococcus saprophyticus by CLSI dilution method; type: functional
[26] = system: Serratia marcescens; assay: Antibacterial activity against Serratia marcescens by CLSI dilution method; type: functional, organism-based
[27] = system: Corynebacterium; assay: Antibacterial activity against […] by CLSI dilution method; type: functional, organism-based
[28] = system: Staphylococcus simulans; assay: Antibacterial activity against methicillin-susceptible coagulase-negative Staphylococcus simulans by CLSI dilution method; type: functional
[29] = system: Klebsiella pneumoniae; assay: Antibacterial activity against Klebsiella pneumoniae by CLSI dilution method; type: functional, organism-based
[30] = system: Campylobacter fetus; assay: Antibacterial activity against Campylobacter fetus by CLSI dilution method; type: functional, organism-based
[31] = system: Citrobacter freundii; assay: Antibacterial activity against Citrobacter freundii by CLSI dilution method; type: functional, organism-based
[32] = system: Staphylococcus epidermidis; assay: Antibacterial activity against methicillin-susceptible coagulase-negative Staphylococcus epidermidis by CLSI dilution method; type: functional
[33] = system: Listeria monocytogenes; assay: Antibacterial activity against Listeria monocytogenes by CLSI dilution method; type: functional, organism-based
[34] = system: Staphylococcus hominis; assay: Antibacterial activity against methicillin-resistant coagulase-negative Staphylococcus hominis by CLSI dilution method; type: functional
[35] = system: Streptococcus; assay: Antibacterial activity against Streptococcus by CLSI dilution method; type: functional, organism-based
[36] = system: Aeromonas sp.; assay: Antibacterial activity against Aeromonas sp. by CLSI dilution method; type: functional, organism-based
[37] = system: Enterococcus; assay: Antibacterial activity against Enterococcus by CLSI dilution method; type: functional, organism-based
[38] = system: Acinetobacter baumannii; assay: Antibacterial activity against sAcinetobacter baumannii by CLSI dilution method; type: functional, organism-based
[39] = system: Pseudomonas aeruginosa; assay: Antibacterial activity against sPseudomonas aeruginosa by CLSI dilution method; type: functional, organism-based
[40] = system: Nocardia sp.; assay: Antibacterial activity against Nocardia sp. by CLSI dilution method; type: functional, organism-based
[41] = system: Helicobacter pylori; assay: Antibacterial activity against Helicobacter pylori by CLSI dilution method; type: functional, organism-based

## CN[C@H](CC(C)C)C(=O)N[C@H]1C(=O)N[C@@H](CC(N)=O)C(=O)N[C@H]2C(=O)N[C@H]3C(=O)N[C@H](C(=O)N[C@H](C(=O)O)c4cc(O)cc(O)c4-c4cc3ccc4O)[C@H](O)c3ccc(c(Cl)c3)Oc3cc2cc(c3O[C@@H]2O[C@H](CO)[C@@H](O)[C@H](O)[C@H]2O[C@H]2C[C@](C)(N)[C@H](O)[C@H](C)O2)Oc2ccc(cc2Cl)[C@H]1O [VANCOMYCIN]
[1]
  MIC50: 1 µg/mL (≈ 0.69 µM)
  MIC90: 1 µg/mL (≈ 0.69 µM)
[2]
  Activity: 0%
[3]
  Activity: 100%
[4]
  Activity: 0%
[5]
  Activity: 0%
[6]
  MIC50: 1 µg/mL (≈ 0.69 µM)
  MIC90: 1 µg/mL (≈ 0.69 µM)
[7]
  Activity: 99%
[8]
  MIC50: 1 µg/mL (≈ 0.69 µM)
  MIC90: 2 µg/mL (≈ 1.38 µM)
[9]
  Activity: 100%
[10]
  Activity: 100%
[11]
  Activity: 0%
[12]
  MIC50: 1 µg/mL (≈ 0.69 µM)
  MIC90: 2 µg/mL (≈ 1.38 µM)

## CC[C@H]1OC(=O)[C@H](C)[C@@H](O[C@H]2C[C@@](C)(OC)[C@@H](O)[C@H](C)O2)[C@H](C)[C@@H](O[C@@H]2O[C@H](C)C[C@H](N(C)C)[C@H]2O)[C@](C)(O)C[C@@H](C)C(=O)[C@H](C)[C@@H](O)[C@]1(C)O [ERYTHROMYCIN]
[1]
  MIC50: 0.5 µg/mL (≈ 0.681 µM)
  MIC90: > 128 µg/mL
[2]
  Activity: 80%
[3]
  Activity: 5%
[4]
  Activity: 12%
[5]
  Activity: 17%
[6]
  MIC50: > 128 µg/mL
[7]
  Activity: 20%
[8]
  MIC50: 0.25 µg/mL (≈ 0.341 µM)
  MIC90: 128 µg/mL (≈ 174 µM)
[9]
  Activity: 78%
[10]
  Activity: 88%
[11]
  Activity: 95%
[12]
  MIC50: 128 µg/mL (≈ 174 µM)
  MIC90: > 128 µg/mL

## Cc1c(N)cccc1Cn1ccc(OCCc2cccs2)cc1=O [CG-400549]
[13]
  MIC: 4 µg/mL (≈ 11.7 µM)
[14]
  Activity: Active
[15]
  Activity: Active
[1]
  MIC50: 0.5 µg/mL (≈ 1.47 µM)
  MIC90: 0.5 µg/mL (≈ 1.47 µM)
[16]
  MIC: 2 µg/mL (≈ 5.87 µM)
[17]
  Activity: Active
[18]
  Activity: Active
[6]
  MIC50: 0.5 µg/mL (≈ 1.47 µM)
  MIC90: 0.5 µg/mL (≈ 1.47 µM)
[19]
  Activity: Active
[20]
  MIC: 4 µg/mL (≈ 11.7 µM)
[21]
  MIC: 4 µg/mL (≈ 11.7 µM)
[22]
  MIC: 2 µg/mL (≈ 5.87 µM)
[23]
  Activity: Active
[24]
  Activity: Active
[25]
  MIC: 8 µg/mL (≈ 23.5 µM)
[26]
  Activity: Active
[27]
  Activity: Active
[28]
  MIC: 4 µg/mL (≈ 11.7 µM)
[29]
  Activity: Active
[30]
  Activity: Active
[31]
  Activity: Active
[32]
  MIC: 8 µg/mL (≈ 23.5 µM)
[33]
  Activity: Active
[8]
  MIC50: 0.5 µg/mL (≈ 1.47 µM)
  MIC90: 8 µg/mL (≈ 23.5 µM)
[34]
  MIC: 4 µg/mL (≈ 11.7 µM)
[35]
  Activity: Active
[36]
  Activity: Active
[37]
  Activity: Active
[38]
  Activity: Active
[39]
  Activity: Active
[40]
  Activity: Active
[41]
  Activity: Active
[12]
  MIC50: 0.5 µg/mL (≈ 1.47 µM)
  MIC90: 4 µg/mL (≈ 11.7 µM)

## C[C@H]1COc2c(N3CCN(C)CC3)c(F)cc3c(=O)c(C(=O)O)cn1c23.C[C@H]1COc2c(N3CCN(C)CC3)c(F)cc3c(=O)c(C(=O)O)cn1c23.O [LEVOFLOXACIN]
[1]
  MIC50: 0.25 µg/mL
  MIC90: 0.5 µg/mL
[2]
  Activity: 60%
[3]
  Activity: 7%
[4]
  Activity: 0%
[5]
  Activity: 0%
[6]
  MIC50: 16 µg/mL
  MIC90: > 128 µg/mL
[7]
  Activity: 35%
[8]
  MIC50: 0.25 µg/mL
  MIC90: 0.25 µg/mL
[9]
  Activity: 100%
[10]
  Activity: 100%
[11]
  Activity: 93%
[12]
  MIC50: 4 µg/mL
  MIC90: 32 µg/mL

## CCC[C@@H]1C[C@@H](C(=O)N[C@@H]([C@H]2O[C@H](SC)[C@H](O)[C@@H](O)[C@H]2O)[C@H](C)Cl)N(C)C1 [CLINDAMYCIN]
[1]
  MIC50: 0.12 µg/mL (≈ 0.282 µM)
  MIC90: 0.12 µg/mL (≈ 0.282 µM)
[2]
  Activity: 54%
[3]
  Activity: 12%
[4]
  Activity: 0%
[5]
  Activity: 3%
[6]
  MIC50: > 128 µg/mL
  MIC90: > 128 µg/mL
[7]
  Activity: 44%
[8]
  MIC50: 0.12 µg/mL (≈ 0.282 µM)
  MIC90: 0.25 µg/mL (≈ 0.588 µM)
[9]
  Activity: 97%
[10]
  Activity: 100%
[11]
  Activity: 88%
[12]
  MIC50: > 128 µg/mL
  MIC90: > 128 µg/mL

## CN(C)[C@@H]1C(O)=C(C(N)=O)C(=O)[C@@]2(O)C(O)=C3C(=O)c4c(O)cccc4[C@@](C)(O)[C@H]3C[C@@H]12 [TETRACYCLINE]
[1]
  MIC50: 1 µg/mL (≈ 2.25 µM)
  MIC90: 32 µg/mL (≈ 72 µM)
[2]
  Activity: 31%
[3]
  Activity: 25%
[4]
  Activity: 12%
[5]
  Activity: 22%
[6]
  MIC50: 64 µg/mL (≈ 144 µM)
  MIC90: 128 µg/mL (≈ 288 µM)
[7]
  Activity: 67%
[8]
  MIC50: 0.5 µg/mL (≈ 1.13 µM)
  MIC90: 64 µg/mL (≈ 144 µM)
[9]
  Activity: 78%
[10]
  Activity: 88%
[11]
  Activity: 75%
[12]
  MIC50: 2 µg/mL (≈ 4.5 µM)
  MIC90: 128 µg/mL (≈ 288 µM)

## CC(=O)NC[C@H]1CN(c2ccc(N3CCOCC3)c(F)c2)C(=O)O1 [LINEZOLID]
[1]
  MIC50: 4 µg/mL (≈ 11.9 µM)
  MIC90: 4 µg/mL (≈ 11.9 µM)
[3]
  Activity: 100%
[6]
  MIC50: 2 µg/mL (≈ 5.93 µM)
  MIC90: 2 µg/mL (≈ 5.93 µM)
[7]
  Activity: 100%
[8]
  MIC50: 1 µg/mL (≈ 2.96 µM)
  MIC90: 2 µg/mL (≈ 5.93 µM)
[9]
  Activity: 100%
[10]
  Activity: 100%
[12]
  MIC50: 1 µg/mL (≈ 2.96 µM)
  MIC90: 2 µg/mL (≈ 5.93 µM)

## Cc1onc(-c2ccccc2)c1C(=O)N[C@@H]1C(=O)N2[C@@H]1SC(C)(C)[C@@H]2C(=O)O [OXACILLIN]
[1]
  MIC50: 0.5 µg/mL (≈ 1.25 µM)
  MIC90: 0.5 µg/mL (≈ 1.25 µM)
[2]
  Activity: 100%
[3]
  Activity: 0%
[4]
  Activity: 0%
[5]
  Activity: 0%
[6]
  MIC50: > 128 µg/mL
  MIC90: > 128 µg/mL
[7]
  Activity: 0%
[8]
  MIC50: 0.12 µg/mL (≈ 0.299 µM)
  MIC90: 0.25 µg/mL (≈ 0.623 µM)
[9]
  Activity: 100%
[10]
  Activity: 100%
[11]
  Activity: 100%
[12]
  MIC50: 32 µg/mL (≈ 79.7 µM)
  MIC90: > 128 µg/mL
